{"source": "patent US20140329797A1", "about": "“SUBSTITUTED OXADIAZOLYL PYRIDINONES AND OXADIAZOLYL PYRIDAZINONES AS HIF INHIBITORS” (Bayer Intellectual Property GmbH, priority 2011, published 2014)"}
{"tested_on": "HCT 116 cells transfected with a luciferase reporter under the control of an HIF-responsive sequence", "assay": "HIF-luciferase assay", "assay_type": "cell-based", "settings": "Homo sapiens; HCT 116 HIF-luciferase reporter cells, hypoxia chamber (1% O2), 24 h; in some cases means of up to four individual determinations", "procedure": "B-1. HIF-Luciferase Assay\nHCT 116 cells were transfected in a stable manner with a plasmid which contained a luciferase reporter under the control of an HIF-responsive sequence. These cells were sown in microtitre plates [20000 cells/cavity in RPMI 1640 medium with 10% foetal calf serum (FCS) and 100 μg/ml of hygromycin]. Incubation was carried out overnight under standard conditions (5% CO2, 21% O2, 37° C., moistened). The following morning the cells were incubated with various concentrations of the test substances (0-10 μmol/l) in a hypoxia chamber (1% O2). After 24 h, Bright Glo reagent (Promega, Wisconsin, USA) was added in accordance with the manufacturer's instructions, and after 5 min the luminescence was measured. Cells which were incubated under normoxia served as background controls.", "units": {"IC50": "nM"}}
{"smiles": "Cc1ccc(Cn2cc(-c3nc(-c4ccc(OC(F)(F)F)cc4)no3)ccc2=O)cc1", "note": "[Example 1, 1-(4-Methylbenzyl)-5-{3-[4-(trifluoromethoxy)phenyl]-1,2,4-oxadiazol-5-yl}pyridin-2(1H)-one]", "IC50": 45}
{"smiles": "Cc1ccc(Cn2cc(-c3nc(-c4ccc(C(C)(C)C(F)(F)F)cc4)no3)ccc2=O)cc1", "note": "[Example 2, 1-(4-Methylbenzyl)-5-{3-[4-(1,1,1-trifluoro-2-methylpropan-2-yl)phenyl]-1,2,4-oxadiazol-5-yl}pyridin-2(1H)-one]", "IC50": 40}
{"smiles": "CC(C)(c1ccc(-c2noc(-c3ccc(=O)n(Cc4ccc(Cl)cc4)c3)n2)cc1)C(F)(F)F", "note": "[Example 4, 1-(4-Chlorobenzyl)-5-{3-[4-(1,1,1-trifluoro-2-methylpropan-2-yl)phenyl]-1,2,4-oxadiazol-5-yl}pyridin-2(1H)-one]", "IC50": 50}
{"smiles": "Nc1ccc(Cn2cc(-c3nc(-c4ccc(OC(F)(F)F)cc4)no3)ccc2=O)cc1", "note": "[Example 7, 1-(4-Aminobenzyl)-5-{3-[4-(trifluoromethoxy)phenyl]-1,2,4-oxadiazol-5-yl}pyridin-2(1H)-one]", "IC50": 20}
{"smiles": "N#CC1CCN(c2cccc(Cn3cc(-c4nc(-c5ccc(OC(F)(F)F)cc5)no4)ccc3=O)c2)CC1", "note": "[Example 9, 1-(3-{[2-oxo-5-{3-[4-(trifluoromethoxy)phenyl]-1,2,4-oxadiazol-5-yl}pyridin-1(2H)-yl]methyl}phenyl)piperidine-4-carbonitrile]", "IC50": 1.5}
{"smiles": "N#CC1CCN(c2cccc(Cn3cc(-c4nc(-c5ccc(SC(F)(F)F)cc5)no4)ccc3=O)c2)CC1", "note": "[Example 10, 1-(3-{[2-oxo-5-(3-{4-[(trifluoromethyl)sulphanyl]phenyl}-1,2,4-oxadiazol-5-yl)pyridin-1(2H)-yl]methyl}phenyl)piperidine-4-carbonitrile]", "IC50": 1}
{"smiles": "CC(C)(c1ccc(-c2noc(-c3ccc(=O)n(Cc4cccc(N5CCC(C#N)CC5)c4)c3)n2)cc1)C(F)(F)F", "note": "[Example 11, 1-(3-{[2-oxo-5-{3-[4-(1,1,1-trifluoro-2-methylpropan-2-yl)phenyl]-1,2,4-oxadiazol-5-yl}pyridin-1(2H)-yl]methyl}phenyl)piperidine-4-carbonitrile]", "IC50": 2}
{"smiles": "N#CC1CCN(c2cccc(Cn3cc(-c4nc(-c5ccc(C6(C(F)(F)F)CC6)cc5)no4)ccc3=O)c2)CC1", "note": "[Example 12, 1-(3-{[2-oxo-5-(3-{4-[1-(trifluoromethyl)cyclopropyl]phenyl}-1,2,4-oxadiazol-5-yl)pyridin-1(2H)-yl]methyl}phenyl)piperidine-4-carbonitrile]", "IC50": 1.5}
{"smiles": "O=c1ccc(-c2nc(-c3ccc(OC(F)(F)F)cc3)no2)cn1Cc1cccc(N2CC(O)C2)c1", "note": "[Example 13, 1-[3-(3-Hydroxyazetidin-1-yl)benzyl]-5-{3-[4-(trifluoromethoxy)phenyl]-1,2,4-oxadiazol-5-yl}pyridin-2(1H)-one]", "IC50": 2}
{"smiles": "O=c1ccc(-c2nc(-c3ccc(SC(F)(F)F)cc3)no2)cn1Cc1cccc(N2CC(O)C2)c1", "note": "[Example 14, 1-[3-(3-Hydroxyazetidin-1-yl)benzyl]-5-(3-{4-[(trifluoromethyl)sulphanyl]phenyl}-1,2,4-oxadiazol-5-yl)pyridin-2(1H)-one]", "IC50": 2}
{"smiles": "CC(C)(c1ccc(-c2noc(-c3ccc(=O)n(Cc4cccc(N5CC(O)C5)c4)c3)n2)cc1)C(F)(F)F", "note": "[Example 15, 1-[3-(3-Hydroxyazetidin-1-yl)benzyl]-5-{3-[4-(1,1,1-trifluoro-2-methylpropan-2-yl)phenyl]-1,2,4-oxadiazol-5-yl}pyridin-2(1H)-one]", "IC50": 2}
{"smiles": "O=c1ccc(-c2nc(-c3ccc(C4(C(F)(F)F)CC4)cc3)no2)cn1Cc1cccc(N2CC(O)C2)c1", "note": "[Example 16, 1-[3-(3-Hydroxyazetidin-1-yl)benzyl]-5-(3-{4-[1-(trifluoromethyl)cyclopropyl]phenyl}-1,2,4-oxadiazol-5-yl)pyridin-2(1H)-one]", "IC50": 5}
{"smiles": "COC(=O)c1cccc(Cn2cc(-c3nc(-c4ccc(C(C)(C)C(F)(F)F)cc4)no3)ccc2=O)c1", "note": "[Example 19, Methyl 3-{[2-oxo-5-{3-[4-(1,1,1-trifluoro-2-methylpropan-2-yl)phenyl]-1,2,4-oxadiazol-5-yl}pyridin-1(2H)-yl]methyl}benzoate]", "IC50": 30}
{"smiles": "CNC(=O)c1cccc(Cn2cc(-c3nc(-c4ccc(C(C)(C)C(F)(F)F)cc4)no3)ccc2=O)c1", "note": "[Example 21, N-Methyl-3-{[2-oxo-5-{3-[4-(1,1,1-trifluoro-2-methylpropan-2-yl)phenyl]-1,2,4-oxadiazol-5-yl}pyridin-1(2H)-yl]methyl}benzamide]", "IC50": 30}
{"smiles": "CN(C)C(=O)c1cccc(Cn2cc(-c3nc(-c4ccc(OC(F)(F)F)cc4)no3)ccc2=O)c1", "note": "[Example 22, N,N-Dimethyl-3-{[2-oxo-5-{3-[4-(trifluoromethoxy)phenyl]-1,2,4-oxadiazol-5-yl}pyridin-1(2H)-yl]methyl}benzamide]", "IC50": 20}
{"smiles": "CN(C)C(=O)c1cccc(Cn2cc(-c3nc(-c4ccc(C(C)(C)C(F)(F)F)cc4)no3)ccc2=O)c1", "note": "[Example 23, N,N-Dimethyl-3-{[2-oxo-5-{3-[4-(1,1,1-trifluoro-2-methylpropan-2-yl)phenyl]-1,2,4-oxadiazol-5-yl}pyridin-1(2H)-yl]methyl}benzamide]", "IC50": 15}
{"smiles": "CC(C)(c1ccc(-c2noc(-c3ccc(=O)n(Cc4cccc(C(=O)N5CCC5)c4)c3)n2)cc1)C(F)(F)F", "note": "[Example 25, 1-[3-(Azetidin-1-ylcarbonyl)benzyl]-5-{3-[4-(1,1,1-trifluoro-2-methylpropan-2-yl)phenyl]-1,2,4-oxadiazol-5-yl}pyridin-2(1H)-one]", "IC50": 5}
{"smiles": "CC(C)(c1ccc(-c2noc(-c3ccc(=O)n(Cc4cccc(C(=O)N5CC(O)C5)c4)c3)n2)cc1)C(F)(F)F", "note": "[Example 27, 1-{3-[(3-Hydroxyazetidin-1-yl)carbonyl]benzyl}-5-{3-[4-(1,1,1-trifluoro-2-methylpropan-2-yl)phenyl]-1,2,4-oxadiazol-5-yl}pyridin-2(1H)-one]", "IC50": 1}
{"smiles": "O=C(c1cccc(Cn2cc(-c3nc(-c4ccc(OC(F)(F)F)cc4)no3)ccc2=O)c1)N1CCCC1", "note": "[Example 28, 1-[3-(Pyrrolidin-1-ylcarbonyl)benzyl]-5-{3-[4-(trifluoromethoxy)phenyl]-1,2,4-oxadiazol-5-yl}pyridin-2(1H)-one]", "IC50": 2}
{"smiles": "O=C(c1cccc(Cn2cc(-c3nc(-c4ccc(OC(F)(F)F)cc4)no3)ccc2=O)c1)N1CCCO1", "note": "[Example 30, 1-[3-(1,2-Oxazolidin-2-ylcarbonyl)benzyl]-5-{3-[4-(trifluoromethoxy)phenyl]-1,2,4-oxadiazol-5-yl}pyridin-2(1H)-one]", "IC50": 2}
{"smiles": "O=C(c1cccc(Cn2cc(-c3nc(-c4ccc(OC(F)(F)F)cc4)no3)ccc2=O)c1)N1CCC(O)CC1", "note": "[Example 32, 1-{3-[(4-Hydroxypiperidin-1-yl)carbonyl]benzyl}-5-{3-[4-(trifluoromethoxy)phenyl]-1,2,4-oxadiazol-5-yl}pyridin-2(1H)-one]", "IC50": 2}
{"smiles": "CC(C)(c1ccc(-c2noc(-c3ccc(=O)n(Cc4cccc(C(=O)N5CCC(O)CC5)c4)c3)n2)cc1)C(F)(F)F", "note": "[Example 33, 1-{3-[(4-Hydroxypiperidin-1-yl)carbonyl]benzyl}-5-{3-[4-(1,1,1-trifluoro-2-methylpropan-2-yl)phenyl]-1,2,4-oxadiazol-5-yl}pyridin-2(1H)-one]", "IC50": 6}
